These results are taken from publication PMC10482691, “LTP induction by structural rather than enzymatic functions of CaMKII” (Nature, 2023).

Holding throughout (assay type): biochemical
One experiment concerns the target IGF-1R(h) (Homo sapiens, UniProt P08069). Nature of the experiment: Kinase selectivity panel (residual activity at 1 μM). Conditions: inhibitor at 1 μM; read-out: residual kinase activity in % of maximal activity.
For another experiment, the target named is PDGFRβ(h) (Homo sapiens, UniProt P09619). Described as above. Conditions: inhibitor at 1 μM; read-out: residual kinase activity in % of maximal activity.
Chain of PDGFRβ(h) (P09619 33-1106): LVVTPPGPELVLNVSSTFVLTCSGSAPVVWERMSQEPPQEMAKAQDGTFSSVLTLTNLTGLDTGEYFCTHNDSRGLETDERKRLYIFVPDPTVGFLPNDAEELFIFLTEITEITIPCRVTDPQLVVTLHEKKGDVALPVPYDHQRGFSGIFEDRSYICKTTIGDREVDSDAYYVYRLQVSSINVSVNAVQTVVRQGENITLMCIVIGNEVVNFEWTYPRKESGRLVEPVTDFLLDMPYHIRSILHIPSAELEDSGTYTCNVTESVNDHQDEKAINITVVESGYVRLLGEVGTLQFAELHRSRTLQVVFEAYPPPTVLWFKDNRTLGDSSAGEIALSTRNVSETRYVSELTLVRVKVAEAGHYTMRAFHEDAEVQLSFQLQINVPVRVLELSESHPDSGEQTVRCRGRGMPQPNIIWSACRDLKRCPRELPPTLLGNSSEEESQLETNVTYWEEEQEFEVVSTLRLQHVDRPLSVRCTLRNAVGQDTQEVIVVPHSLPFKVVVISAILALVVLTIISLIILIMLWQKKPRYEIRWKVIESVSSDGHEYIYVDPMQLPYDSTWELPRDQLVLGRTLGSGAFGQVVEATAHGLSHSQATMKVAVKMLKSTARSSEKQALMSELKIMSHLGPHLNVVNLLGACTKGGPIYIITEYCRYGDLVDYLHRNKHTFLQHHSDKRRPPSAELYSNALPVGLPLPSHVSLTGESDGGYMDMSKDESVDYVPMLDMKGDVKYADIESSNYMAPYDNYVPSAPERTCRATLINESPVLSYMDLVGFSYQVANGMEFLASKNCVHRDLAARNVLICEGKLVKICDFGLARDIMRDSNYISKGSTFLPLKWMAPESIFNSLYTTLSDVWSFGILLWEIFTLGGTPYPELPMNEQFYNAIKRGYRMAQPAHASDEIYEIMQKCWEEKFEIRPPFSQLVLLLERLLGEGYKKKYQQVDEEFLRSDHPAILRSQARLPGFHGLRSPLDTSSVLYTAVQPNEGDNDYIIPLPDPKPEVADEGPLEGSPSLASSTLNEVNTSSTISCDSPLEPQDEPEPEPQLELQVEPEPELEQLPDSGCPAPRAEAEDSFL
For another experiment, the target named is PKG1β(h) (Homo sapiens, UniProt Q13976). Described as above. Conditions: inhibitor at 1 μM; read-out: residual kinase activity in % of maximal activity.
Chain of PKG1β(h) (Q13976 1-686 isoform Q13976-2): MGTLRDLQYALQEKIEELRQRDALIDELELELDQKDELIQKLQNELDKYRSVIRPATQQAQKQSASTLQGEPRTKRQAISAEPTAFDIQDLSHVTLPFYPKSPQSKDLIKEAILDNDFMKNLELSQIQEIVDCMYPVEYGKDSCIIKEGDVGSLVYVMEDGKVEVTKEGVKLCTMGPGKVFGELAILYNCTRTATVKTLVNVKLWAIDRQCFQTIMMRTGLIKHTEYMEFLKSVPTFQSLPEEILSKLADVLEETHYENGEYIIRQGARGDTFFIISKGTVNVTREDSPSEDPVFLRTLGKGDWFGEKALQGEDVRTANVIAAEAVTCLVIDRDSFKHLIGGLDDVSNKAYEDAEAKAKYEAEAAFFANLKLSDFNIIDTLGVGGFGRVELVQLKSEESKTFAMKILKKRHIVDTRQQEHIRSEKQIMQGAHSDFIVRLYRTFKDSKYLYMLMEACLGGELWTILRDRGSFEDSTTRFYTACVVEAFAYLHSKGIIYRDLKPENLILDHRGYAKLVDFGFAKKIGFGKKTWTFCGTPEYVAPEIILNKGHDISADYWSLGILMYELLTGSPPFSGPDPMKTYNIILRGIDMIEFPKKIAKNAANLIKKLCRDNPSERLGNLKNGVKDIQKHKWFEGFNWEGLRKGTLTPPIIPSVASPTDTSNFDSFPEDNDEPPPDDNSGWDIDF
The target in another experiment is JAK2(h) (Homo sapiens, UniProt O60674). Described as above. Conditions: inhibitor at 1 μM.
Chain of JAK2(h) (O60674 whole entry): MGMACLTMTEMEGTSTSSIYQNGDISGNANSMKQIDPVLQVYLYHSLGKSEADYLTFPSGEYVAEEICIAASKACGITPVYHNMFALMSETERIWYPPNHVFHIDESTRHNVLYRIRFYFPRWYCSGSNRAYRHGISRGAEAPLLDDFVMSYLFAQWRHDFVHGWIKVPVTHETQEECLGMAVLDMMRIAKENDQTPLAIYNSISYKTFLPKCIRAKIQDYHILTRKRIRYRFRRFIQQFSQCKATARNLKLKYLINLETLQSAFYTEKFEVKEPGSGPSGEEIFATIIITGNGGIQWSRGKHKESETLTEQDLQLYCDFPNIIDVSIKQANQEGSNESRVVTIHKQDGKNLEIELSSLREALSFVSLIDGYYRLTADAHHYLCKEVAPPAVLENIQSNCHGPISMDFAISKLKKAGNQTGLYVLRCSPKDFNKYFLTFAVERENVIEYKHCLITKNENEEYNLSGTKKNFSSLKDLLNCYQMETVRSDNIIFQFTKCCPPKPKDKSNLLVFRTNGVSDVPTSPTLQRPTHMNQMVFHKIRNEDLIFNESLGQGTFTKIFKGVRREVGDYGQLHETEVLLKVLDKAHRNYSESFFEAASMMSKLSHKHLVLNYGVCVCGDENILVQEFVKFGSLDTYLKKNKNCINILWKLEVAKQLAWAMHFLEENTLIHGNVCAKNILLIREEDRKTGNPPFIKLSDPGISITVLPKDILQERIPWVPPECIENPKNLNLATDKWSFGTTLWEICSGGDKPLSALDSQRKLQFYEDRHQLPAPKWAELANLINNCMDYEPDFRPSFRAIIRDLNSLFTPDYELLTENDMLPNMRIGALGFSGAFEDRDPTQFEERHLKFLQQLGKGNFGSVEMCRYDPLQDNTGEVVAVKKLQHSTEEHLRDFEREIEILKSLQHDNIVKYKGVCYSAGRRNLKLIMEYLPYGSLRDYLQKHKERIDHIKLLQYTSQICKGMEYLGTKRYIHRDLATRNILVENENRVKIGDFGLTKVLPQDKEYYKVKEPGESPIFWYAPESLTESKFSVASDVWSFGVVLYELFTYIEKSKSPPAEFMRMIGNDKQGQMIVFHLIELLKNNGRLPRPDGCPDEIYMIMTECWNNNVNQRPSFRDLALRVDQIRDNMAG
Another experiment addresses p70S6K(h) (Homo sapiens, UniProt P23443). The experiment is described as above. Conditions: inhibitor at 1 μM; read-out: residual kinase activity in % of maximal activity.
Another experiment addresses CaMKIIγ(h) (Homo sapiens, UniProt Q13555). The description is as above. Conditions: inhibitor at 1 μM; read-out: residual kinase activity in % of maximal activity.
Another experiment has as its target CaMKIIα WT (Homo sapiens, UniProt Q9UQM7). Nature of the experiment: In vitro kinase reactions with CaMKII WT ± NM-PP1 (pT286, pS831). The protocol: Fig. 4 The CaMKII mutation F89G impairs ATP binding but binds the ATP-competitive inhibitor NM-PP1 that restores GluN2B binding and LTP-induced synaptic translocation. Data are presented as mean values ± s.e.m. a, Schematic of the pharmacogenetic method of ATP-competitive CaMKII inhibition; enlargement of the CaMKII ATP-binding pocket by the F89G mutation allows for selective binding of the ATP-competitive inhibitor NM-PP1. b, Immunoblots of in vitro kinase reactions at 30 °C including GFP–CaMKII WT, K42M and F89G with GST–GluA1-c tail. […] Correlation indices were measured before and after Ionomycin-induced colocalization of GFP–CaMKII (WT, K42M and F89G) with mCherry-2BC, represented as change in the correlation index (vehicle: n = 22, 17, 12 cells; NM-PP1: n = 20, 24, 13 cells; one-way ANOVA, Tukey’s multiple comparisons test). […] CaMKII synaptic enrichment was measured before and after cLTP (n = 13, 14, 14 cells; RM two-way ANOVA with Šídák’s multiple comparisons test). […] CaMKII synaptic enrichment was measured before and after cLTP (n = 7, 6, 7 cells; RM two-way ANOVA with Šídák’s multiple comparisons test). […]
CaMKII-mediated phosphorylation of GluA1 S831 or GluN2B S1303 was measured by in vitro kinase reaction with a purified GST–GluA1 C-terminal tail or GST-GluN2B C-terminal tail. […]

Chain of IGF-1R(h) (P08069 31-1367): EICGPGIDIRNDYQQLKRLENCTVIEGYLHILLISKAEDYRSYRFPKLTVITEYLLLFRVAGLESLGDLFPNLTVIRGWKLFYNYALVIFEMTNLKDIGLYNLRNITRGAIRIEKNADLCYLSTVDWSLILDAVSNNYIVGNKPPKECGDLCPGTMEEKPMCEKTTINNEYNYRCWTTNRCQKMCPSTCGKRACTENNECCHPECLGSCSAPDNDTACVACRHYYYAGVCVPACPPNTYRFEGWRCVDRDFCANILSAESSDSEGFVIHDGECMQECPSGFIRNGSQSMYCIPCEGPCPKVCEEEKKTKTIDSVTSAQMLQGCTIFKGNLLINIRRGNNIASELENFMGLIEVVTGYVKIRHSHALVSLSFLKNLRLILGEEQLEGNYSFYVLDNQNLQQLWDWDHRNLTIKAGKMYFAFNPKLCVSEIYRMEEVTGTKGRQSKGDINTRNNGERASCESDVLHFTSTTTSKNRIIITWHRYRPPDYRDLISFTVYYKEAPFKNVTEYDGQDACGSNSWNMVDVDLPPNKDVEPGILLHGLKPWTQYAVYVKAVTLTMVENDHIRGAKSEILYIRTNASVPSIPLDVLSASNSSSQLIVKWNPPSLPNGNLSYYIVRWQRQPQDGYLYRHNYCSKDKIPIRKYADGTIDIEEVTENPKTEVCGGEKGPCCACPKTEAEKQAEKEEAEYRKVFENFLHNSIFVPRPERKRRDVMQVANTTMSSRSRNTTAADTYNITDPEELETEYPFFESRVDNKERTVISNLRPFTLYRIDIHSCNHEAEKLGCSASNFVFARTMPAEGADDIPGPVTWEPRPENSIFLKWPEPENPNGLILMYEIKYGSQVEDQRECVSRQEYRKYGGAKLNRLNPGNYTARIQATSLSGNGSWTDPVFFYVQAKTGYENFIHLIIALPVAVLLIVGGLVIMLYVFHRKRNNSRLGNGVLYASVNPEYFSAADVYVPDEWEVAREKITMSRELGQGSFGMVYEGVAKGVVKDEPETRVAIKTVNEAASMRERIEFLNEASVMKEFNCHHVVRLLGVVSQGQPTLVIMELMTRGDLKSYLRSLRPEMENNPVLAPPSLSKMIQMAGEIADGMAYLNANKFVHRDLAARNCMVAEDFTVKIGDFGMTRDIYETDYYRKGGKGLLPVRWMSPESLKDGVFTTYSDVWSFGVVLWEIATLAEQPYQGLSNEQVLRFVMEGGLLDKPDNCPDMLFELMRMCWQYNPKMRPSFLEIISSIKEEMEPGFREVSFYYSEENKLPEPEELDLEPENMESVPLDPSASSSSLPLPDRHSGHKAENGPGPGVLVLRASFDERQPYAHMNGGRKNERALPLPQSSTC
Chain of p70S6K(h) (P23443 whole entry): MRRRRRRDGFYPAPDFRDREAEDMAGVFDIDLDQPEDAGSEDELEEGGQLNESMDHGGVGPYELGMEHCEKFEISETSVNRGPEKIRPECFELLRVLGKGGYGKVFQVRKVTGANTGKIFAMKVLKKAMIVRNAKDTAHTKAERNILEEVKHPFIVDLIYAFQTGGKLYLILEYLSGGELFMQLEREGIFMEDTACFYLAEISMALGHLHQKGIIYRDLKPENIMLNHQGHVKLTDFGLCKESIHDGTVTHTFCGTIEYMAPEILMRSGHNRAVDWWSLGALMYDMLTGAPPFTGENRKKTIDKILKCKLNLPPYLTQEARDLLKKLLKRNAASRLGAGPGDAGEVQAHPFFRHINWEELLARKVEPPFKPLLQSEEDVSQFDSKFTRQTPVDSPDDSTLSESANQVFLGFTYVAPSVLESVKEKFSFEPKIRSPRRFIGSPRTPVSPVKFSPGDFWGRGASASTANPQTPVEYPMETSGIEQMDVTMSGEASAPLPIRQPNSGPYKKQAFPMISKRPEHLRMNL

Regarding `NCCNc1cccc(-c2ccnc3[nH]c4ccccc4c23)c1` [AS283], the remaining activity at 1 µM on IGF-1R(h) amounted to 110%; on PDGFRβ(h) it was 111%; on PKG1β(h), 38%; on p70S6K(h) it was 18%; on CaMKIIγ(h), 2%. The “residual kinase activity in % of maximal activity” value on JAK2(h) stood at 121%.
In the case of `CC(C)(C)n1nc(Cc2cccc3ccccc23)c2c(N)ncnc21` [NM-PP1], the “effect on pT286 for CaMKII WT” value on CaMKIIα WT was “did not affect”.
